These results are taken from patent US6469027B1, “N-methyl-D-aspartate (NMDA) receptor blockers for the prevention of atherosclerosis” (The Board of Regents of the University of Nebraska, priority 1996, dated 2002).

“Also recorded” adds a separate entry of the source.

One test has as its system c-myb. Put plainly: c-myb expression in N-VSMC (RT-PCR, immunoprecipitation and western blot). It counts as cell-based, chicken. How it is done: (§1) FIGS. 3A, 3B and 3C are RNA blot analyses of c-fos and c-myb mRNA isolated from N-VSMC cultures. Cultures were incubated in the absence and presence of 200μM H[cys] for 0, (lane 1); 15 min, (lane 2); 30 min, (lane 3); 45 min, (lane 4) and 60 min, (lane 5); and analyzed for c-fos expression. In FIG. 3B, the time course of c-myb MRNA induction in the presence of 200μM H[cys] for 0 h, (lane 1); 8 h, (lane 2); 16 h, (lane 3); 24 h, (lane 4). The c-fos transcripts were analyzed by northern blot and normalized to β actin expression. The amount of c-myb mRNA levels were normalized to estrogen receptor (ER) transcripts as determined by RT-PCR. […] The amount of c-myb mRNA levels were normalized to estrogen receptor (ER) transcripts as determined by RT-PCR. The amount of specific radiolabeling in the autoradiograph was quantified by scanning densitometry. The size of the c-Myb protein is 75 kilodaltons. The 75 kilodalton band is defined as c-Myb because immunoprecipitation of this protein was not detected in the presence of synthetic polypeptide [[…] encoded by sequences 1080-1133].
FIG. 4 is a graph illustrating the analysis of c-myb synthesis in response to NMDA receptor antagonist, Mk-801 and CGS19755. Immunoprecipitation and western blotting of radiolabeled c-Myb from N-VSMC treated with 200μMH[cys] in the presence and absence of 50 μM Mk-801 or 1 mM CGS19755. Cell cultures were treated with and without H[cys] for 24 hours, extracts were immunoprecipitated with anti c-myb IgG and samples were separated by SDS-PAGE gels and western blotted. The amount of specific radiolabeling in the autoradiograph was quantified by scanning densitometry. The size of the c-Myb protein is 75 kilodaltons. The 75 kilodalton band is defined as c-Myb because immunoprecipitation of this protein was not detected in the presence of synthetic polypeptide [I13-[…] encoded by sequences 1080-1133].
RNA Blot Analysis: Total RNA was isolated from VSMC derived from thoracic and abdominal aorta by homogenization, and lysis with guanidinium isothiocyanate was followed by phenol-chloroform extraction. Ten micrograms of total RNA per lane was separated in a 1.5% agarose-formaldehyde gel, and the RNA was transferred by capillary transfer to a 0.45 μm nylon membrane. Filters were hybridized as previously with cDNAs labeled with [^32P]deoxycytidine5′-triphosphate to specific activities of approximately 2×10^9 cpm/μg using a random prime labeling kit (Boehringer Mannheim Biochemicals, Indianapolis, Ind.). The probes included chicken c-fos, Bactin, estrogen receptor (ER) and c myb.
Reverse Transcriptase-Polymerase Chain Reaction: Reverse transcription of 4 to 10,000 nanograms (ng) of RNA using 10 picomoles (pm) of hexamer primers was performed for 90 minutes (min) at 37° C. using 200 units superscript reverse transcriptase (Gibco BRL), in 50 mM Tris, pH, 8.2, 75 Mm KC1, 3 mM MgCl2, 10 mM dithiothreitol (DTT), 1 unit/μ1 RNasin (Promega), and 1 mM each of DATP, dCTP, dGTP, and dTTP. The samples were heated at 95° C. for 5 min to terminate the reverse transcription. The resulting cDNA was treated with 1 unit of […] at 37° C. for 20 min. A 5% fraction of the cDNA was subjected to PCR using c-myb upstream (5′ggTCCTTTgAAgATgCTgCC3′) and downstream(5′[…]gAgTCCgggTTg3′) primers; estrogen receptor (ER) (5′ggACTgCCAgCTgCCgATCTT3′) and (5′CTCACgAATgTggCgCCT3′) primers; β actin (5′AAgAggTAATCCTgACCCCTgAA3′) and (5′ACCCTgACCATCAgggAgTTCA3′) primers. PCR was performed using 0.25 μM of each primer, 3 μM cDNA, 0.2 mM of each deoxynucleotide triphosphate, 75 mM KC1, 1.5 mM MgCl2 and 0.5 unit Taq polymerase (Perkin Elmer; Cetus) in 10 mM Tris-HC1, pH 8.3 with total volume of 100 μl. […] PCR products were analyzed by electrophoresis in 1.5% agarose gels stained with ethidium bromide. PCR amplifications of all target templates and controls were run in parallel or on the same sample. […]
(In general: In western blotting, separated proteins are transferred to a membrane and probed.)

The subject of a further test is c-fos. Put plainly: c-fos mRNA in N-VSMC (RNA blot). The class given is cell-based, chicken. How it is done: as §1
RNA Blot Analysis: Total RNA was isolated from VSMC derived from thoracic and abdominal aorta by homogenization, and lysis with guanidinium isothiocyanate was followed by phenol-chloroform extraction. […]

The subject of test [1] is mouse aortic smooth muscle cells. The test is described as follows: 3H thymidine uptake / mitogenic effect in mouse aortic smooth muscle cells. It counts as cell-based. How it is done: The mitogenic and other effects of growth factors are exaggerated in late embryonic or fetal smooth muscle cells, and cells in the late fetal state provide a high contrast picture of their subsequent, post-natal, responses. To take advantage of this effect, late fetal C57BL/6×129 mice were obtained and aortic smooth muscle cell cultures were prepared according to the inventors' previously published methods set forth above. These cells were treated with a series of Hcy dilutions (10 μM-100 μM) as described above. […] Subsequently, the fetal mouse smooth muscle cells were treated with a number of variations of the incubation medium containing the Hcy. In no case did Hcy produce a measurable mitogenic effect. […] Aortic smooth muscle cells were obtained from mice of this strain that were 3-6 months old, and were treated with various concentrations of Hcy.

Where [2] appears, read: neural crest derived smooth muscle cells.

Consider `N[C@@H](CCS)C(=O)O` [homocysteine], for which the “c-myb mRNA transcripts induced” value in the test with c-myb (200 μM homocysteine) was 6 fold. Further, the cMyb protein result in the test on c-myb (30 and 100 μM) is “dose dependent increase”. Further, the c-myb induction result with c-myb (setting [2]) is “induced”. Further, in the test with c-fos (200 μM homocysteine), the “c-fos mRNA transcripts induced” value came to 15 fold. In addition, the c-fos induction result in the test on c-fos (setting [2]) is listed as “induced”. For the same molecule, the mitogenic effect entry in test [1] (adult C57Bl/6 mice 3-6 months old, various concentrations, listed as Hcy) is on record as “no mitogenic effect; also recorded: No mitogenic result”. Moreover, the 3H thymidine uptake entry in test [1] (late fetal C57BL/6×129 mice, 10 μM-100 μM) is on record as “no enhancement”.
